Counter-ions that a name gives are not always drawn. Like-named read-outs stand apart in the source and are kept apart here.
Assays:
MCL-1 = MCL-1 (Homo sapiens, UniProt Q07820, K194A/K197A/R201A); experiment: Protein-protein interaction assay MCL-1/Noxa BH3 peptide, TR-FRET (MCL-1 assay, Assay 1); type: binding; settings: MCL-1 Assay [M] (median), MBP-MCL-1 / Noxa BH3 peptide
Procedure: The dose-dependent inhibition by the compounds described in this invention of the interaction between MCL-1 and the BH3 domain of Noxa (both human) was determined using a steady state binding competition assay with time-resolved fluorescence energy transfer (TR-FRET) readout. For that purpose MCL-1 (amino acids 173-321, N-terminal fused to Maltose Binding Protein (MBP), SEQ ID 1) and a synthetic Noxa BH3-derived peptide of sequence Biotin-PEG2-PEG2-PAELEVE-Nva-[…]-amide (SEQ ID 2) served as protein receptor and tracer ligand respectively. The MBP-MCL-1 was purchased from Beryllium (Bedford, Mass., USA). The expression and purification of this protein construct has been described elsewhere (DOI:10.1371/journal.pone.0125010). The Noxa BH3-derived peptide can be obtained from e.g. Biosyntan (Berlin, Germany).
For that, 100-fold concentrated DMSO solutions were prepared by serial dilutions (1:3.4) of a 2 mM stock solution in a clear, 384-well microtiter plate (Greiner Bio-One, Frickenhausen, Germany). From there, 50 nl were transferred in a dark test plate (Greiner Bio-One, Frickenhausen, Germany). The assay was initiated by addition of 2 μl of a 2,5-fold concentrated MBP-MCL-1 solution (usually for a 1 nM end concentration in 5 μl reaction volume) in aqueous assay buffer [50 mM Tris/HCl pH 7, 100 mM sodium chloride (NaCl), 50 mM potassium fluoride (KF), 0.005% Tween-20, 2 mM DTT, 0.1% bovine gamma globulin (BGG)] to the compounds in the assay plate. This was followed by a 10-minute incubation step at 22° C. for pre-equilibration of the putative complex between MBP-MCL-1 and the compounds.
The mixture was incubated in the dark for one hour at 22° C. and then overnight at 4° C. The formation of MCL-1/Noxa complexes was determined by measuring the resonance energy transfer of the anti-MBP-Eu-cryptate antibody to the streptavidin-XL665 present in the reaction.
The resulting data (ratio) were normalized, taking 0% inhibition as the mean value of control measurements (usually 32 data points) where all reagents were included. In this case 50 nl DMSO were used instead of compounds. […] IC50 values were determined by regression analysis based on a 4 parameter equation (minimum, maximum, IC50, Hill; Y=Max+(Min−Max)/(1+(X/IC50)^Hill) using the Screener Software (Genedata).

SUDHL5 [1] = experiment: Induction of caspase-3/7 activity in SUDHL5 cells (Assay 4); type: cell-based; settings: SUDHL5, 3 hours treatment, Caspase-Glo 3/7, median, read-out: Caspase SUDHL5 [M] (median)
Procedure: (§1) Induction of Caspase-3/7 Activity Upon Treatment of Cells with Selected Compounds
(§2) The BH3-domain of MCL-1 sequesters pro-apoptotic proteins, thereby inhibiting apoptosis. In contrast, MCL-1 inhibitors are expected to antagonize this effect leading to an increase in apoptosis, which can be determined by measuring the activity of caspase-3/7.
(§3) The activity of caspase-3/7 was determined in DLBCL (Diffuse large B-cell lymphoma) cell lines (SUDHL5 and SUDHL10) upon treatment with different compounds, using the Caspase-Glo® 3/7 reagent from Promega (G8092).
(§4) As a control, medium without cells was also added to the plate. Cells were incubated in a humidified incubator at 37° C. overnight.
(§5) Rim wells were excluded. The cells were incubated for 3 hours in a humidified incubator at 37° C. After this incubation, 30 μl of Caspase-Glo® 3/7 reagent (Promega G8092) was added to each well using the Multidrop Combi Reagent Dispenser, followed by 1 hour incubation at 37° C. Finally, luminescence was read at 0.1 ms, with a gain of 3000 using the PHERAstar FS microplate reader (BMG Labtech).
(§6) For the evaluation of the results, the background measured with “medium-only” was subtracted from all other values. Then, the values were normalized to DMSO-only treated cells (every value was divided by the mean of the DMSO control).

SUDHL10 [2] = experiment: Induction of caspase-3/7 activity in SUDHL10 cells (Assay 4); type: cell-based; settings: SUDHL10, 3 hours treatment, Caspase-Glo 3/7, median, read-out: Caspase SUDHL10 [M] (median)
Procedure: as §1, §2, §3, §4, §5, §6

SUDHL5 [3] = experiment: Induction of cytotoxicity in SUDHL5 cells, CellTiter-Glo (Assay 6); type: cell-based
Procedure: (§7) Induction of Cytotoxicity Upon Treatment of Cells with Selected Compounds
(§8) In principle, compounds that induce apoptosis will concomitantly induce cell cytotoxicity. Therefore, cytotoxicity assays were run in parallel in SUDHL5 and SUDHL10 cells.
(§9) As a control, medium without cells was also added to the plate. Cells were incubated in a humidified incubator at 37° C. overnight. […] Rim wells were excluded. The cells were incubated for 5 hours in a humidified incubator at 37° C. After this incubation, 30 μl of CellTiter-Glo® Luminescent Cell Viability reagent (Promega, G7573) was added to each well using the Multidrop Combi Reagent Dispenser, followed by 15 minutes incubation on a shaker at room temperature. Finally, luminescence was read at 0.1 ms, with a gain of 3000 using the PHERAstar FS microplate reader (BMG Labtech).

SUDHL10 [4] = experiment: Induction of cytotoxicity in SUDHL10 cells, CellTiter-Glo (Assay 6); type: cell-based
Procedure: as §7, §8, §9

[5] = SUDHL5, 5 hours incubation, median, read-out: Cytotox SUDHL5 [M] (median)
[6] = SUDHL10, 5 hours incubation, median, read-out: Cytotox SUDHL10 [M] (median)

Sequence of MCL-1 (Q07820 173-321 K194A/K197A/R201A, looked up): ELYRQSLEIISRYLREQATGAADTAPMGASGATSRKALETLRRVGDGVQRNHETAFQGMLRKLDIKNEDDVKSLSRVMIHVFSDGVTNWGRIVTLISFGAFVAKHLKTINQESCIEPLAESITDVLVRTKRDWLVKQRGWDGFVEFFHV

IC50 (MCL-1) | EC50 (SUDHL5 [1]) | EC50 (SUDHL10 [2]) | EC50 (SUDHL5 [1]; Homo sapiens, SU-DHL-5, 3 h) | EC50 (SUDHL10 [2]; Homo sapiens, SU-DHL10, 3 h) | Compound | IC50 (SUDHL5 [3]; read-out: Cytotox SUDHL5 [M] (median), SUDHL5, 5 hours incubation) | IC50 (SUDHL10 [4]; read-out: Cytotox SUDHL10 [M] (median), SUDHL10, 5 hours incubation) | IC50 (SUDHL5 [3]; [5]) | IC50 (SUDHL10 [4]; [6]) | IC50 (SUDHL10 [4]; Homo sapiens, SU-DHL10, 5 h, SUDHL10, 5 hours incubation, median, read-out: Cytotox SUDHL10 [M] (median))
2.9e-08 M | 9.2e-07 M | 5.2e-06 M | – | – | Cc1c2c(nn1C)CN(S(=O)(=O)c1ccc(N3CCOCC3)nc1)Cc1ccccc1Cn1c(C(=O)O)c(CCCOc3cccc4ccccc34)c3cccc-2c31 (single isomer, unassigned; enantiomer 1) [Example 18, (+)-4,5-Dimethyl-8-{[6-(morpholin-4-yl)pyridin-3-yl]sulfonyl}-17-[3-(naphthalen-1-yloxy)propyl]-7,8,9,14-tetrahydro-5H-indolo[1,7-bc]pyrazolo[4,3-e][2,8]benzodiazacycloundecine-16-carboxylic Acid (Enantiomer 1)] | – | – | 1.4e-06 M | 3.8e-06 M | –
3.9e-08 M | 4.2e-06 M | 1.2e-05 M | – | – | Cc1c2c(nn1C)CN(C(=O)CC1CCOCC1)Cc1ccccc1Cn1c(C(=O)O)c(CCCOc3cccc4ccccc34)c3cccc-2c31 (single isomer, unassigned; enantiomer 2) [Example 23, (+)-4,5-Dimethyl-17-[3-(naphthalen-1-yloxy)propyl]-8-(tetrahydro-2H-pyran-4-ylacetyl)-7,8,9,14-tetrahydro-5H-indolo[1,7-bc]pyrazolo[4,3-e][2,8]benzodiazacycloundecine-16-carboxylic Acid (Enantiomer 2)] | – | – | 4.4e-06 M | 1.1e-05 M | –
6.5e-07 M | 1.4e-05 M | > 3.3e-05 M | – | – | Cc1c2c(nn1C)CN(C(=O)CC1CCOCC1)Cc1ccccc1Cn1c(C(=O)O)c(CCCOc3cccc4ccccc34)c3cccc-2c31 (single isomer, unassigned; enantiomer 1) [Example 22, (−)-4,5-Dimethyl-17-[3-(naphthalen-1-yloxy)propyl]-8-(tetrahydro-2H-pyran-4-ylacetyl)-7,8,9,14-tetrahydro-5H-indolo[1,7-bc]pyrazolo[4,3-e][2,8]benzodiazacycloundecine-16-carboxylic Acid (Enantiomer 1)] | – | – | 1.7e-05 M | > 3.3e-05 M | –
2.6e-07 M | – | – | > 3.3e-05 M | > 3.3e-05 M | Cc1c2c(nn1C)CN(C(=O)NC1CCOCC1)Cc1ccccc1Cn1c(C(=O)O)c(CCCOc3cccc4ccccc34)c3cccc-2c31 (single isomer, unassigned; enantiomer 1) [Example 25, (+)-4,5-Dimethyl-17-[3-(naphthalen-1-yloxy)propyl]-8-(tetrahydro-2H-pyran-4-ylcarbamoyl)-7,8,9,14-tetrahydro-5H-indolo[1,7-bc]pyrazolo[4,3-e][2,8]benzodiazacycloundecine-16-carboxylic Acid (Enantiomer 1)] | – | – | > 3.3e-05 M | – | > 3.3e-05 M
9.4e-07 M | 1.7e-05 M | > 3.3e-05 M | – | – | Cc1c2c(nn1C)CN(S(=O)(=O)c1ccc(N3CCOCC3)nc1)Cc1ccccc1Cn1c(C(=O)O)c(CCCOc3cccc4ccccc34)c3cccc-2c31 (single isomer, unassigned; enantiomer 2) [Example 19, (−)-4,5-Dimethyl-8-{[6-(morpholin-4-yl)pyridin-3-yl]sulfonyl}-17-[3-(naphthalen-1-yloxy)propyl]-7,8,9,14-tetrahydro-5H-indolo[1,7-bc]pyrazolo[4,3-e][2,8]benzodiazacycloundecine-16-carboxylic Acid (Enantiomer 2)] | – | – | 2.3e-05 M | > 3.3e-05 M | –

Compound | IC50 (MCL-1) | EC50 (SUDHL5 [1]) | EC50 (SUDHL10 [2]) | EC50 (SUDHL5 [1]; Homo sapiens, SU-DHL-5, 3 h) | EC50 (SUDHL10 [2]; Homo sapiens, SU-DHL10, 3 h) | IC50 (SUDHL5 [3]; read-out: Cytotox SUDHL5 [M] (median), SUDHL5, 5 hours incubation) | IC50 (SUDHL10 [4]; read-out: Cytotox SUDHL10 [M] (median), SUDHL10, 5 hours incubation) | IC50 (SUDHL5 [3]; [5]) | IC50 (SUDHL10 [4]; [6]) | IC50 (SUDHL10 [4]; Homo sapiens, SU-DHL10, 5 h, SUDHL10, 5 hours incubation, median, read-out: Cytotox SUDHL10 [M] (median))
Cc1c2c(nn1C)CNCc1ccccc1Cn1c(C(=O)O)c(CCCOc3cccc4ccccc34)c3cccc-2c31 (single isomer, unassigned; enantiomer 2) [Example 13, 4,5-Dimethyl-17-[3-(naphthalen-1-yloxy)propyl]-7,8,9,14-tetrahydro-5H-indolo[1,7-bc]pyrazolo-[4,3-e][2,8]benzodiazacycloundecine-16-carboxylic acid-Trifluoroacetic Acid Salt (Enantiomer 2)] | 1.7e-07 M | 1.4e-05 M | > 3.3e-05 M | – | – | 1.7e-05 M | 2.5e-05 M | – | – | –

From patent US20210253598A1, “ARYL ANNULATED MACROCYCLIC INDOLE DERIVATIVES” (priority 2017, published 2021)
